# PMC9234962, “Optimization of Peptide Linker-Based Fluorescent Ligands for the Histamine H1 Receptor” (Journal of Medicinal Chemistry, 2022)
# Square brackets hold non-standard residues; d marks the D form. Peptide text beside a SMILES is read from it. * marks the point of attachment. Propanoyl(3-Pip(4-O-2-BnPh)) = O=C(CCN1CCC(Oc2ccccc2Cc2ccccc2)CC1)*
# Molecular target: Nluc-H1R (Homo sapiens, UniProt P35367)
# Test: NanoBRET competition binding assay (displacement of 1) on Nluc-H1R expressing HEK293T cells
# Conditions: for Ki / pKi: displacement of 1 (25 nM, KD = 8 nM), whole HEK293T cells, Cheng–Prusoff; for pKi: mean ± SEM, three experiments
# Sequence of Nluc-H1R (P35367 whole entry): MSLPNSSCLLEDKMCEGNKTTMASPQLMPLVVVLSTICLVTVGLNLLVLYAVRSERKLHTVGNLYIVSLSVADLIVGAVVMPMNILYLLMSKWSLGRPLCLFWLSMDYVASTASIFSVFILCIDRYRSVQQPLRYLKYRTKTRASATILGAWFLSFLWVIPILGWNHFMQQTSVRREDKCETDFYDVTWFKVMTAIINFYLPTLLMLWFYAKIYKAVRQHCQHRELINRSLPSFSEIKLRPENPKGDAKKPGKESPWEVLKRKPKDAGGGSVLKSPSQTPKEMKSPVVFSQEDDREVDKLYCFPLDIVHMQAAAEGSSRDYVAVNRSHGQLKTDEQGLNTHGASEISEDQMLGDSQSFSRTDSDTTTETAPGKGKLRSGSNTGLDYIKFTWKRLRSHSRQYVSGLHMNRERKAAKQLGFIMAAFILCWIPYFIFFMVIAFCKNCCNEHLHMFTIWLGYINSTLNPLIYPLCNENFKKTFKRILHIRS
Compound,Ki [nM],pKi,"pKi/pKD (H1R) (supplementary CSV, unlabeled congeners (pKi))"
"CC(C)[C@H](NC(=O)CCN1CCC(Oc2ccccc2Cc2ccccc2)CC1)C(=O)N[C@@H](Cc1ccccc1)C(=O)N[C@@H](C)C(=O)N[C@H](Cc1ccccc1)C(N)=O [Compound 9c, (S)-N-((S)-1-(((S)-1-(((R)-1-Amino-1-oxo-3-phenylpropan-2-yl)amino)-1-oxopropan-2-yl)amino)-1-oxo-3-phenylpropan-2-yl)-2-(3-(4-(2-benzylphenoxy)piperidin-1-yl)-propanamido)-3-methylbutanamide] ({Propanoyl(3-Pip(4-O-2-BnPh))}-VFA[dF]-NH2)",794,6.10 ± 0.20,–
"CC(C)[C@H](NC(=O)CCN1CCC(Oc2ccccc2Cc2ccccc2)CC1)C(=O)N[C@@H](Cc1ccc(O)cc1)C(=O)N[C@@H](C)C(=O)N[C@H](Cc1ccccc1)C(N)=O [Compound 9d, (S)-N-((S)-1-(((S)-1-(((R)-1-Amino-1-oxo-3-phenylpropan-2-yl)amino)-1-oxopropan-2-yl)amino)-3-(4-hydroxyphenyl)-1-oxopropan-2-yl)-2-(3-(4-(2-benzylphenoxy)-piperidin-1-yl)propanamido)-3-methylbutanamide] ({Propanoyl(3-Pip(4-O-2-BnPh))}-VYA[dF]-NH2)",437,6.36 ± 0.04,–
"CC(C)[C@H](NC(=O)CCN1CCC(Oc2ccccc2Cc2ccccc2)CC1)C(=O)N[C@@H](Cc1cnc[nH]1)C(=O)N[C@@H](C)C(=O)N[C@H](Cc1ccccc1)C(N)=O [Compound 9g, (S)-N-((S)-1-(((S)-1-(((R)-1-Amino-1-oxo-3-phenylpropan-2-yl)amino)-1-oxopropan-2-yl)amino)-3-(1H-imidazol-5-yl)-1-oxopropan-2-yl)-2-(3-(4-(2-benzylphenoxy)piperidin-1-yl)propanamido)-3-methylbutanamide] ({Propanoyl(3-Pip(4-O-2-BnPh))}-VHA[dF]-NH2)",692,6.16 ± 0.06,–
"CC(C)[C@H](NC(=O)CCN1CCC(Oc2ccccc2Cc2ccccc2)CC1)C(=O)N[C@@H](CO)C(=O)NCC(=O)N[C@H](Cc1ccccc1)C(N)=O [Compound 10a, (S)-N-((S)-1-((2-(((R)-1-Amino-1-oxo-3-phenylpropan-2-yl)amino)-2-oxoethyl)amino)-3-hydroxy-1-oxopropan-2-yl)-2-(3-(4-(2-benzylphenoxy)piperidin-1-yl)propanamido)-3-methylbutanamide] ({Propanoyl(3-Pip(4-O-2-BnPh))}-VSG[dF]-NH2)",158,6.80 ± 0.05,–
"CC(C)[C@H](NC(=O)CCN1CCC(Oc2ccccc2Cc2ccccc2)CC1)C(=O)N[C@@H](CO)C(=O)N[C@H](C(=O)N[C@H](Cc1ccccc1)C(N)=O)C(C)C [Compound 10b, (S)-N-((R)-1-Amino-1-oxo-3-phenylpropan-2-yl)-2-((S)-2-((S)-2-(3-(4-(2-benzylphenoxy)piperidin-1-yl)propanamido)-3-methylbutanamido)-3-hydroxypropanamido)-3-methylbutanamide] ({Propanoyl(3-Pip(4-O-2-BnPh))}-VSV[dF]-NH2)",309,6.51 ± 0.07,–
"CC(C)[C@H](NC(=O)CCN1CCC(Oc2ccccc2Cc2ccccc2)CC1)C(=O)N[C@@H](CO)C(=O)N[C@@H](Cc1ccccc1)C(=O)N[C@H](Cc1ccccc1)C(N)=O [Compound 10c, (S)-N-((S)-1-(((S)-1-(((R)-1-Amino-1-oxo-3-phenylpropan-2-yl)amino)-1-oxo-3-phenylpropan-2-yl)amino)-3-hydroxy-1-oxopropan-2-yl)-2-(3-(4-(2-benzylphenoxy)piperidin-1-yl)propanamido)-3-methylbutanamide] ({Propanoyl(3-Pip(4-O-2-BnPh))}-VSF[dF]-NH2)",110,6.96 ± 0.02,–
"CC(C)[C@H](NC(=O)CCN1CCC(Oc2ccccc2Cc2ccccc2)CC1)C(=O)N[C@@H](CO)C(=O)N[C@@H](Cc1ccc(O)cc1)C(=O)N[C@H](Cc1ccccc1)C(N)=O [Compound 10d, (S)-N-((S)-1-(((S)-1-(((R)-1-Amino-1-oxo-3-phenylpropan-2-yl)amino)-3-(4-hydroxyphenyl)-1-oxopropan-2-yl)amino)-3-hydroxy-1-oxopropan-2-yl)-2-(3-(4-(2-benzylphenoxy)piperidin-1-yl)propanamido)-3-methylbutanamide] ({Propanoyl(3-Pip(4-O-2-BnPh))}-VSY[dF]-NH2)",95,7.02 ± 0.08,–
"CC(C)[C@H](NC(=O)CCN1CCC(Oc2ccccc2Cc2ccccc2)CC1)C(=O)N[C@@H](CO)C(=O)N[C@@H](CO)C(=O)N[C@H](Cc1ccccc1)C(N)=O [Compound 10e, (S)-N-((S)-1-(((S)-1-(((R)-1-Amino-1-oxo-3-phenylpropan-2-yl)amino)-3-hydroxy-1-oxopropan-2-yl)amino)-3-hydroxy-1-oxopropan-2-yl)-2-(3-(4-(2-benzylphenoxy)piperidin-1-yl)propanamido)-3-methylbutanamide] ({Propanoyl(3-Pip(4-O-2-BnPh))}-VSS[dF]-NH2)",339,6.47 ± 0.03,–
"CC(C)[C@H](NC(=O)CCN1CCC(Oc2ccccc2Cc2ccccc2)CC1)C(=O)N[C@@H](CO)C(=O)N[C@@H](Cc1cnc[nH]1)C(=O)N[C@H](Cc1ccccc1)C(N)=O [Compound 10g, (S)-N-((S)-1-(((S)-1-(((R)-1-Amino-1-oxo-3-phenylpropan-2-yl)amino)-3-(1H-imidazol-4-yl)-1-oxopropan-2-yl)amino)-3-hydroxy-1-oxopropan-2-yl)-2-(3-(4-(2-benzylphenoxy)piperidin-1-yl)propanamido)-3-methylbutanamide] ({Propanoyl(3-Pip(4-O-2-BnPh))}-VSH[dF]-NH2)",126,6.90 ± 0.04,–
"CC(C)[C@H](NC(=O)CCN1CCC(Oc2ccccc2Cc2ccccc2)CC1)C(=O)N[C@@H](CO)C(=O)N[C@@H](CCCCN)C(=O)N[C@H](Cc1ccccc1)C(N)=O [Compound 10h, (S)-6-Amino-N-((R)-1-amino-1-oxo-3-phenylpropan-2-yl)-2-((S)-2-((S)-2-(3-(4-(2-benzylphenoxy)piperidin-1-yl)propanamido)-3-methylbutanamido)-3-hydroxypropanamido)hexanamide] ({Propanoyl(3-Pip(4-O-2-BnPh))}-VSK[dF]-NH2)",186,6.73 ± 0.05,–
(S)-N1-((S)-1-Amino-1-oxo-3-phenylpropan-2-yl)-2-((S)-2-((S)-2-(3-(4-(2-benzylphenoxy)piperidin-1-yl)propanamido)-3-methylbutanamido)-3-hydroxypropanamido)succinimide [Compound 11b],437,6.36 ± 0.22,7.05

# Now from value to compound, other results behind:
Ki [nM],pKi,Compound,"pKi/pKD (H1R) (supplementary CSV, unlabeled congeners (pKi))"
151,6.82 ± 0.06,"CC(C)[C@H](NC(=O)CCN1CCC(Oc2ccccc2Cc2ccccc2)CC1)C(=O)N[C@@H](CO)C(=O)N[C@@H](C)C(=O)N[C@H](Cc1ccccc1)C(N)=O [Compound 9e, (S)-N-((S)-1-(((S)-1-(((R)-1-Amino-1-oxo-3-phenylpropan-2-yl)amino)-1-oxopropan-2-yl)amino)-3-hydroxy-1-oxo-propan-2-yl)-2-(3-(4-(2-benzylphenoxy)piperidin-1-yl)-propanamido)-3-methylbutanamide] ({Propanoyl(3-Pip(4-O-2-BnPh))}-VSA[dF]-NH2)",–
832,6.08 ± 0.03,"CC(C)[C@H](NC(=O)CCN1CCC(Oc2ccccc2Cc2ccccc2)CC1)C(=O)N[C@@H](CC(N)=O)C(=O)N[C@@H](C)C(=O)N[C@H](Cc1ccccc1)C(N)=O [Compound 9f, (S)-N1-((S)-1-(((R)-1-Amino-1-oxo-3-phenylpropan-2-yl)amino)-1-oxopropan-2-yl)-2-((S)-2-(3-(4-(2-benzylphenoxy)piperidin-1-yl)propanamido)-3-methylbutanamido)succinamide] ({Propanoyl(3-Pip(4-O-2-BnPh))}-VNA[dF]-NH2)",–
2400,5.62 ± 0.06,"CC(C)[C@H](NC(=O)CCN1CCC(Oc2ccccc2Cc2ccccc2)CC1)C(=O)N[C@@H](CCCCN)C(=O)N[C@@H](C)C(=O)N[C@H](Cc1ccccc1)C(N)=O [Compound 9h, (S)-6-Amino-N-((S)-1-(((R)-1-amino-1-oxo-3-phenylpropan-2-yl)amino)-1-oxopropan-2-yl)-2-((S)-2-(3-(4-(2-benzylphenoxy)piperidin-1-yl)propanamido)-3-methylbutanamido)hexanamide] ({Propanoyl(3-Pip(4-O-2-BnPh))}-VKA[dF]-NH2)",–
550,6.26 ± 0.14,"CC(C)[C@H](NC(=O)CCN1CCC(Oc2ccccc2Cc2ccccc2)CC1)C(=O)N[C@@H](CC(=O)O)C(=O)N[C@@H](C)C(=O)N[C@H](Cc1ccccc1)C(N)=O [Compound 9i, (S)-4-(((S)-1-(((R)-1-Amino-1-oxo-3-phenylpropan-2-yl)amino)-1-oxopropan-2-yl)amino)-3-((S)-2-(3-(4-(2-benzylphenoxy)piperidin-1-yl)propanamido)-3-methylbutanamido)-4-oxobutanoic Acid] ({Propanoyl(3-Pip(4-O-2-BnPh))}-VDA[dF]-NH2)",–
95,7.02 ± 0.08,"CC(C)[C@H](NC(=O)CCN1CCC(Oc2ccccc2Cc2ccccc2)CC1)C(=O)N[C@@H](CO)C(=O)N[C@@H](CC(N)=O)C(=O)N[C@H](Cc1ccccc1)C(N)=O [Compound 10f, (S)-N1-((R)-1-Amino-1-oxo-3-phenylpropan-2-yl)-2-((S)-2-((S)-2-(3-(4-(2-benzylphenoxy)piperidin-1-yl)propanamido)-3-methylbutanamido)-3-hydroxypropanamido)succinamide] ({Propanoyl(3-Pip(4-O-2-BnPh))}-VSN[dF]-NH2)",–
174,6.76 ± 0.04,"CC(C)[C@H](NC(=O)CCN1CCC(Oc2ccccc2Cc2ccccc2)CC1)C(=O)N[C@@H](CO)C(=O)N[C@@H](CC(=O)O)C(=O)N[C@H](Cc1ccccc1)C(N)=O [Compound 10i, (S)-4-(((R)-1-Amino-1-oxo-3-phenylpropan-2-yl)amino)-3-((S)-2-((S)-2-(3-(4-(2-benzylphenoxy)piperidin-1-yl)propanamido)-3-methylbutanamido)-3-hydroxypropanamido)-4-oxobutanoic Acid] ({Propanoyl(3-Pip(4-O-2-BnPh))}-VSD[dF]-NH2)",–
